Source: patent publication US6500858B2, “Taxoid anti-tumor agents and pharmaceutical compositions thereof” (The Research Foundation of the state University of New York, priority 1994, dated 2002)
“And” between values parts separate entries of the source, which are not always exact repeats. Identical values can stand only once. Like-named read-outs stand apart in the source and are kept apart here.

Tests used:
B16 melanoma = test: intravenous administration to mice bearing B16 melanoma; assay type: in vivo, B6D2F1 female mice; parameters: key to Responses (activity rating): A = active; HA = highly active; settings: for T/C / log10 cell kill / drug related deaths (DD) / highest nontoxic dose: days 3, 5, 7
Procedure: (§1) The efficacy of the test compounds on solid tumors in vivo was determined experimentally according to the following general experimental protocol:
(§2) The mice subjected to the experiment were subcutaneously grafted bilaterally with 30 to 60 mg of a tumor fragment on day zero. Mice bearing tumors were mixed before being subjected to the various treatments and controls. In the case of treatment of advanced tumors, tumors were allowed to develop to the desired size, and mice having insufficiently developed tumors were eliminated. The selected mice were distributed at random to undergo the treatments and controls. Mice not bearing tumors may also be subjected to the same treatments as the tumor-bearing mice in order to be able to dissociate the toxic effect from the specific effect on the tumor. Chemotherapy generally began from 3 to 22 days after grafting, depending on the type of tumor, and the mice were observed every day. The different mice groups were weighed 3 or 4 times a week until the maximum weight loss was attained (nadir), and the groups were then weighed at least once a week until the end of the trial.
(§3) The tumors were measured 2 or 3 times a week until the tumor reached approximately 2 grams, or until the animal died, if this occurred before the tumor reached 2 grams. The mice were autopsied when sacrificed.
(§4) The antitumor activity was determined in accordance with different parameters recorded such as dose (mg/kg), mode of administration, time of administration, cytotoxicity, toxicity and log10 cell kill.
SB-T-1213, SB-T-121303, SB-T-121304 and SB-T-1250 were evaluated in B6D2F1 female mice bearing B16 melanoma. The general experimental protocol was as described above. The compounds evaluated were administered intravenously (iv) on an intermittent schedule on days 3, 5, and 7 post tumor implantation. With the exception of SB-T-1250, solutions of the compounds for administration were prepared in 5% ethanol, 5% polysorbate 80, and 90% glucose 5% water.

WiDr = test: growth inhibition by cell counts, 72 h; assay type: cell-based, human; settings: read-out: WiDr IC50
Procedure: (§5) Cells were plated in 6-well flat bottom plates (Falcon, Lincoln Park, N.J.) at a concentration of 10^5 cells ml in complete medium. After 24 h, the medium was replaced with media containing the test substances. Control cells were treated with vehicle alone. Cells were then washed twice and cultures maintained up to 72 h in complete medium (without removing the test substances). At this time point quadruplicate counts of triplicate cultures were performed. To calculate the growth inhibition effect, three independent experiments were performed for each test substance/cell line. The IC50 values were then calculated by fitting the concentration-effect curve data obtained in the three experiments with the sigmoid-Emax model using nonlinear regression, weighted by the reciprocal of the square of the predicted effect according to the method of Motulsky, H. J. and Ransnas, L. A., FASEB J. 1:365-74 (1987).

MCF-7 wt = test: growth inhibition by cell counts, 72 h; assay type: cell-based, human; settings: read-out: MCF-7 wt IC50
Procedure: as §5

A2780 = test: growth inhibition by cell counts, 72 h; assay type: cell-based, human; settings: read-out: A2780 IC50
Procedure: as §5

PC-3 = test: growth inhibition by cell counts, 72 h; assay type: cell-based, human
Procedure: as §5

MCF-7 ADRr = test: growth inhibition by cell counts, 72 h; assay type: cell-based, human; settings: read-out: MCF-7 ADRr IC50
Procedure: as §5

DU-145 = test: growth inhibition by cell counts, 72 h; assay type: cell-based, human; settings: read-out: DU-145 IC50
Procedure: as §5

NCI-H23 = test: growth inhibition by cell counts, 72 h; assay type: cell-based, human; settings: read-out: NCI-H23 IC50
Procedure: as §5

[1] = tested on: docetaxel-resistant melanoma, B16/TXT; test: intravenous administration to B16/TXT melanoma-bearing mice; assay type: in vivo, B6D2F1 female mice; parameters: key to Responses (activity rating): A = active; HA = highly active
Procedure: as §1, §2, §3, §4
SB-T-1213, SB-T-121303, SB-T-121304 and SB-T-1250 were evaluated in B6D2F1 female mice bearing the docetaxel-resistant melanoma, B16/TXT. The general experimental protocol was as described above. The compounds evaluated were administered intravenously on an intermittent schedule on days 3, 5, and 7 post tumor implantation.

[2] = tested on: LCC6-WT: human breast carcinoma; test: cytotoxicity assay of second generation taxoids; assay type: cell-based; settings: Homo sapiens, 72 h, read-out: LCC6-WT IC50
Procedure: A cytotoxicity assay of these new second generation taxoids was performed on human breast cancer cell lines, LCC6-WT and LCC-MDR, and selected taxoids were also assayed for their potency against MCF7 and MCF7-R (Skehan, P., et al., J. Nat. Cancer Inst. 1990, 82, 1107-1112).

[3] = tested on: LCC6-MDR: MDR1 transduced line; test: cytotoxicity assay of second generation taxoids; assay type: cell-based, human; settings: Homo sapiens, LCC6MDR, 72 h, read-out: LCC6-MDR IC50
A121 (ovarian carcinoma) = test: tumor cell growth inhibition (SRB, 72 h drug exposure); assay type: cell-based, human; settings: 72 h drug exposure
Procedure: (§6) Lower numbers indicate higher potency. […] The data represent the mean values of at least three separate experiments. Lower numbers indicate greater activity.
(§7) Assessment of cell growth inhibition was determined according to the methods of Skehan et al., J. Nat. Cancer Inst. […] Briefly, cells were plated between 400 and 1200 cells/well in 96 well plates and incubated at 37° C. for 15-18 h prior to drug addition to allow attachment of cells. […] After a 72 h incubation, […] of ice-cold 50% TCA was added to each well and incubated for 1 h at 4° C. Plates were then washed 5 times with tap water to remove TCA, low-molecular-weight metabolites and serum proteins. Sulforhodamine B (SRB) (0.4%, […]) was added to each well. Following a 5 min incubation at room temperature, plates were rinsed 5 times with 0.1% acetic acid and air dried. […] Optical density was measured at 570 nm.

MCF7 (mammary carcinoma) = test: as above; assay type: cell-based, human
Procedure: as §6, §7

[4] = tested on: MCF7-R (mammary carcinoma cells 180-fold resistant to adriamycin); test: as above; assay type: cell-based, human
Procedure: as §6, §7

HT-29 (colon carcinoma) = test: as above; assay type: cell-based, human; settings: 72 h drug exposure
Procedure: as §6, §7

[5] = tested on: human colon carcinoma cells HCT-116; settings: cited from earlier work
[6] = tested on: multi-drug resistant phenotype human colon carcinoma cells HCT-116/VM; settings: cited from earlier work
[7] = tested on: A549 (non-small cell lung carcinoma); test: tumor cell growth inhibition (SRB, 72 h drug exposure); assay type: cell-based, human; settings: 72 h drug exposure; read-out: A549 (NSCLC) IC50
Procedure: as §6, §7

[8] = tested on: mammary adenocarcinoma MA17/A; test: oral administration to MA17/A tumor-bearing mice; assay type: in vivo, C3H/HeN female mice; parameters: key to Responses (activity rating): A = active; HA = highly active
Procedure: as §1, §2, §3, §4
SB-T-1213 was evaluated in C3H/HeN female mice bearing mammary adenocarcinoma MA17/A with an intermittent schedule of oral administrations. The compound for administration was formulated in 10% ethanol, 10% polysorbate 80, and 80% glucose/5% water.
SB-T-1213 was administered 3 times a day on 3 and 7 days post tumor implantation. The two highest dosages of 36.4 and 22.6 mg/kg/adm. were toxic, producing 5/5 drug related deaths (DD) and 20% body weight loss, respectively. However, the highest nontoxic dose of 14 mg/kg/adm. (total dose of 84 mg/kg), produced 8.4% body weight loss at nadir, 4 days post therapy. […] One of five mice was a tumor-free survivor (TFS) on day 94 post tumor implantation with this dosage. Two lower dosages of 8.7 and 5.4 mg/kg/adm. also maintained activity, having a log10 cell kill of greater than 3 and of 2.5, respectively.

## 3′-dephenyl-3′-(2,2-dimethyl-1-cyclopropyl)-10-acetyldocetaxel [SB-T-1250]
B16 melanoma; 4.5 mg/kg/adm.
  Responses (activity rating): A
  T/C: 23%
  log10 cell kill: 1.2
B16 melanoma; 4.5 mg/kg/adm., days 3, 5, 7, 4.5 mg/kg
  % body weight loss at nadir: 12.5% and 12.5 (3) %
B16 melanoma; 7.3 mg/kg/adm.
  drug related deaths (DD): ⅕
B16 melanoma; 11.8 mg/kg/adm.
  drug related deaths (DD): ⅗
B16 melanoma; 19 mg/kg/adm.
  drug related deaths (DD): 100%
B16 melanoma
  highest nontoxic dose: 4.5 mg/kg/adm.
WiDr
  IC50: 0.5 nM
MCF-7 wt; 72 h
  IC50: 2.3 nM
A2780; 72 h
  IC50: 3.03 nM
PC-3; 72 h
  IC50: 0.7 nM
MCF-7 ADRr; 72 h
  IC50: 48 nM
DU-145; 72 h
  IC50: 0.6 nM
NCI-H23; 72 h
  IC50: 1.6 nM
[1]; 2.8 mg/kg/adm., days 3, 5, 7
  T/C: 152%
[1]; 4.5 mg/kg/adm., days 3, 5, 7
  T/C: 108%
[1]; 7.3 mg/kg/adm.
  Responses (activity rating): A
[1]; 7.3 mg/kg/adm., days 3, 5, 7
  T/C: 41%
  log10 cell kill: 1.1
[1]; 7.3 mg/kg/adm., days 3, 5, 7, 7.3 mg/kg
  % body weight loss at nadir: 16.7% and 16.7 (4) %
[1]; days 3, 5, 7
  highest nontoxic dose: 7.3 mg/kg/adm.

## CC(=O)O[C@H]1C(=O)[C@@]2(C)[C@H]([C@H](OC(=O)c3ccccc3)[C@]3(O)C[C@H](OC(=O)[C@H](O)[C@@H](NC(=O)c4ccccc4)c4ccccc4)C(C)=C1C3(C)C)[C@]1(OC(C)=O)CO[C@@H]1C[C@@H]2O [Paclitaxel, paclitaxel, reference compound]
[2]
  IC50: 3.1 nM
[3]
  IC50: 346 nM
A121 (ovarian carcinoma); Homo sapiens, A121
  IC50: 6.1 nM
MCF7 (mammary carcinoma); Homo sapiens, MCF7, 72 h drug exposure, Table 1, read-out: MCF7 (breast) IC50
  IC50: 1.7 nM
MCF7 (mammary carcinoma); Homo sapiens, MCF7, 72 h drug exposure, Table 3, read-out: MCF7 IC50
  IC50: 1.7 nM
[4]; Homo sapiens, MCF7R, 72 h drug exposure, Table 1
  IC50: 300 nM
HT-29 (colon carcinoma); Homo sapiens, HT-29
  IC50: 3.2 nM
WiDr; Homo sapiens, WiDr
  IC50: 3.8 nM
MCF-7 wt; Homo sapiens, MCF7, 72 h
  IC50: 5.8 nM
A2780; Homo sapiens, A2780, 72 h
  IC50: 5.4 nM
PC-3; Homo sapiens, PC-3, 72 h
  IC50: 3.4 nM
MCF-7 ADRr; Homo sapiens, MCF7, 72 h
  IC50: 3300 nM
DU-145; Homo sapiens, DU-145, 72 h
  IC50: 1.5 nM
NCI-H23; Homo sapiens, NCI-H23, 72 h
  IC50: 4.1 nM

## CC(=O)OC1C(=O)C2(C)C(O)CC3OCC3(OC(C)=O)C2C(OC(=O)c2ccccc2)C2(O)CC(OC(=O)C(O)C(C=C(C)C)NC(=O)c3ccccc3)C(C)=C1C2(C)C (centres unmarked) [RAH-1, 3′-dephenyl-3′-isobutenylpaclitaxel]
[5]
  times better activity than docetaxel: 7 times
  times better activity than paclitaxel: 4 times
[6]
  times better activity than docetaxel: 9 times
  times better activity than paclitaxel: about 20 times
A121 (ovarian carcinoma)
  IC50: 1.4 nM
MCF7 (mammary carcinoma); 72 h drug exposure, Table 1, read-out: MCF7 (breast) IC50
  IC50: 0.54 nM
[7]
  IC50: 0.45 nM
[4]; 72 h drug exposure, Table 1
  IC50: 113 nM
[4]; one order of magnitude weaker than Taxoid Ia
  activity against MCF7-R in words: only marginal activity
HT-29 (colon carcinoma)
  IC50: 0.96 nM

## CCC(=O)OC1C(=O)C2(C)C(O)CC3OCC3(OC(C)=O)C2C(OC(=O)c2ccccc2)C2(O)CC(OC(=O)C(O)C(C=C(C)C)NC(=O)OC(C)(C)C)C(C)=C1C2(C)C (centres unmarked) [Taxoid Ib, 3′-Dephenyl-3′-(2-methyl-1-propenyl)-10-propanoyldocetaxel]
B16 melanoma; 4.5 mg/kg/adm.
  Responses (activity rating): A
  log10 cell kill: 1.6
B16 melanoma; 7.3 mg/kg/adm.
  Responses (activity rating): A
  log10 cell kill: 1.8
B16 melanoma; 11.8 mg/kg/adm.
  Responses (activity rating): HA
  T/C: 0%
  log10 cell kill: 3
B16 melanoma; 11.8 mg/kg/adm., days 3, 5, 7, listed as SB-T-1213, 11.8 mg/kg
  % body weight loss at nadir: 15.3% and 15.3 (3) %
B16 melanoma; 19 mg/kg/adm.
  drug related deaths (DD): ⅕
B16 melanoma
  highest nontoxic dose: 11.8 mg/kg/adm.
[8]; 8.7 mg/kg/adm.
  Responses (activity rating): A
  tumor-free survivors (TFS): 1/5
[8]; 14.0 mg/kg/adm.
  Responses (activity rating): HA
[8]; 14 mg/kg/adm., day 94 post tumor implantation, listed as SB-T-1213, 14 mg/kg
  tumor-free survivors (TFS): One of five and 1/5
[8]; 14.0 mg/kg/adm., days 3, 7
  T/C: 0%
[8]; 14 mg/kg/adm., days 3, 7, total 84 mg/kg, listed as SB-T-1213
  % body weight loss at nadir: 8.4% and 8.4 (4) %
[8]; 22.6 mg/kg/adm., 3 times a day on days 3 and 7
  body weight loss: 20%
[8]; 36.4 mg/kg/adm., 3 times a day on days 3 and 7
  drug related deaths (DD): 5/5
[8]; 3 times a day on days 3 and 7
  highest nontoxic dose: 14 mg/kg/adm.
MCF7 (mammary carcinoma); Table 2, read-out: MCF7 IC50
  IC50: 0.21 nM
[4]; Table 2
  IC50: 2.16 nM
WiDr
  IC50: 0.4 nM
MCF-7 wt; 72 h
  IC50: 0.9 nM
A2780; 72 h
  IC50: 1.77 nM
PC-3; 72 h
  IC50: 0.3 nM
MCF-7 ADRr; 72 h
  IC50: 8 nM
DU-145; 72 h
  IC50: 0.3 nM
NCI-H23; 72 h
  IC50: 0.7 nM
[1]; 4.5 mg/kg/adm., days 3, 5, 7
  T/C: 74%
[1]; 7.3 mg/kg/adm.
  Responses (activity rating): A
[1]; 7.3 mg/kg/adm., days 3, 5, 7
  log10 cell kill: 1
[1]; 11.8 mg/kg/adm.
  Responses (activity rating): A
[1]; 11.8 mg/kg/adm., days 3, 5, 7
  log10 cell kill: 1
[1]; 19 mg/kg/adm.
  Responses (activity rating): A
[1]; 19 mg/kg/adm., days 3, 5, 7
  T/C: 11%
  log10 cell kill: 1.6
[1]; 19 mg/kg/adm., days 3, 5, 7, listed as SB-T-1213, 19 mg/kg
  % body weight loss at nadir: 17.1% and 17.1 (4) %
